Measurements as given in patent US6589938B2, “Use of angiotensin I derivatives as an agent for the treatment and prevention of infarction-related cardiac injuries and disorders” (National University of Singapore, priority 2001, dated 2003).

System: experimentally-infarcted rats
Experiment: Infarct scar area and transmurality after coronary occlusion and reperfusion in rats
Assay type: in vivo, Sprague Dawley rats
Settings: for Transmurality, Treated: infarct scar area divided by infarct area; for Transmurality, Treated / Infarct Scar Area, Treated: mean ± SEM, 7 rats; for Infarct Scar Area, Treated: left ventricle
Method: The experimental protocol for induction of cardiac infarction by coronary occlusion and reperfusion in rats was carried out as described by Oh et al. (10). Briefly, each rat was anaesthetized with 7% w/v chloral hydrate (0.4 g/kg, i.p.). Each anaesthetised animal was intubated and ventilated with a rodent ventilator. Under a dissecting microscope, a left thoracotomy was performed in the fourth intercostal space, and the pericardium open. The left coronary artery was encircled with a curved needle and a silk suture. The left coronary artery was ligated for 45 minutes, followed by reperfusion. In sham-operated animals, the left coronary artery was not ligated. The chest was closed in layers and the pneumothorax evacuated.
Following the surgery, each animal was placed in a cage. The animals had access to water and rat chow ad libitum. The animals were randomly divided into the control group and treatment group. Each group consisted of 7 animals. The treatment group was orally administered 381 nmoles/kg/day of des-Asp-angiotensin I (dissolved in 1 ml water) for 14 days. The control group was similarly administered an equivalent volume of water. The experiment was repeated with the following doses of des-Asp-angiotensin I: 762, 1524, and […] nmoles/kg/day.
On the fourteenth day following surgery, animals were anaesthetised as before. Rats were ventilated as before and the thorax was opened. A polyethylene catheter (PE 200) was introduced into the left ventricle (via the left atrial appendage) and another into the descending aorta retrogradely. The heart was arrested with 2 ml injection of saturated KCl solution into the right atrium. After aortic perfusion with heparinized saline (10,000 units/L) for 3 minutes to wash out the blood, the myocardium was perfused retrogradely from the aorta with 4% phosphate-buffered paraformaldehyde at a constant pressure of 60 mm Hg for 20 minutes. The right atrium and pulmonary artery were opened to decompress the right ventricle during fixation. The left ventricle intracavity pressure was maintained at 10 mm Hg by use of the cathether introduced via the left atrial appendage.
After hardening, the heart was excised and postfixed in 4% paraformaldehyde for 24 hours. Following postfixing, the atria and adhensions were carefully dissected away and the right and left ventricles were separated, the interventricular septum being included with the left ventricle. The left ventricle was processed for paraffin embedment. Transverse serial sections of 40 μm thick were cut from the apex of the ventricle to its base. Every section at 1 mm intervals was mounted and stained with Milligan's trichrome. The infracted tissue (infarct scar) was stained blue. Two sections, taken at 5 and 6 mm, respectively, from the apex of each ventricle were used for morphometric determination of the infarct scar area and transmurality. The morphometry system consisted of a BX40 light microscope (Olympus, Japan) fitted with a KYF55B colour video camera (JVC, Japan) and a Pentium 166 MHz/MKX microcomputer (Datamini, Singapore) installed with an image Pro Plus 3.0 System (Media Cybernetics, USA) for Windows 95™. The infarct scar area, infarct area (which measured the scar and the surrounding surviving ventricular tissue) were determined in mm2. Transmurality is equal to the infarct scar area divided by infarct area.
The results of the study are summarized in Table 2 Data were expressed as mean±SEM. Significant differences were determined by one way ANOVA and post hoc Newman Kleuf test. The accepted level of significance was p<0.05. […] The effect was dose dependent and significant anti-infarction action was brought about by an oral dose of 1524 nmoles/kg/day.

[1] = 381 nmole/kg/day orally for 14 days
[2] = 762 nmole/kg/day orally for 14 days
[3] = 1524 nmole/kg/day orally for 14 days, * p < 0.05 vs Control
[4] = 3096 nmole/kg/day orally for 14 days, * p < 0.05 vs Control

Des-Aspartate angiotensin I [des-Asp-angiotensin I]
Transmurality, Treated [1]: 32.93 ± 1.94% | Infarct Scar Area, Treated [1]: 5.85 ± 0.25 mm^2 | Transmurality, Treated [2]: 33.70 ± 3.40% | Infarct Scar Area, Treated [2]: 5.60 ± 0.30 mm^2 | Transmurality, Treated [3]: 24.67 ± 2.37* % | Infarct Scar Area, Treated [3]: 5.11 ± 0.54* mm^2 | Transmurality, Treated [4]: 31.26 ± 1.53* % | Infarct Scar Area, Treated [4]: 5.86 ± 0.20* mm^2 | attenuating the infarct size area and transmurality (experimentally-induced myocardial infarcted rats, oral, 14 days): effective agent | oral dose that brought about significant anti-infarction action (oral, 14 days, p<0.05, one way ANOVA): 1524 nmol/kg/day
